Converted amounts (≈) assume the structure as drawn. The source made the active and inactive calls. No cut-off for these calls is given here.
Tests used:
[1] = Inhibition of ferriprotoporphyrin-9 biocrystallization by micro-ELISA
[2] = tested on: Acanthamoeba castellanii; assay: Antiprotozoal activity against trophozoite stage of Acanthamoeba castellanii Neff ATCC 30010 after 72 to 120 hrs by Alamar Blue assay; assay type: functional; conditions: Acanthamoeba castellanii str. Neff
[3] = tested on: Plasmodium falciparum; assay: Antimalarial activity against intraerythrocytic asexual stage of Plasmodium falciparum 3D7 assessed as inhibition of [G-3H]-hypoxanthine uptake by semiautomated microdilution method; assay type: functional, organism-based
[4] = tested on: Toxoplasma gondii; assay: Antiprotozoal activity against tachyzoite stage of Toxoplasma gondii RH assessed as viability at 100 uM after 4 hrs by trypan blue exclusion assay relative to control; assay type: functional
[5] = tested on: Toxoplasma gondii; assay: Antiprotozoal activity against tachyzoite stage of Toxoplasma gondii RH assessed as viability at 200 uM after 4 hrs by trypan blue exclusion assay relative to control; assay type: functional
[6] = tested on: Toxoplasma gondii; assay: Antiprotozoal activity against tachyzoite stage of Toxoplasma gondii RH assessed as viability at 500 uM after 4 hrs by trypan blue exclusion assay relative to control; assay type: functional
[7] = tested on: Toxoplasma gondii; assay: Antiprotozoal activity against tachyzoite stage of Toxoplasma gondii RH assessed as viability at 1 mM after 4 hrs by trypan blue exclusion assay relative to control; assay type: functional
[8] = tested on: Trichomonas vaginalis; assay: Trichomonastatic activity against Trichomonas vaginalis JH31A at 1 ug/ml after 48 hrs by Neubauer chamber analysis relative to control; assay type: functional
[9] = tested on: Trichomonas vaginalis; assay: Trichomonastatic activity against Trichomonas vaginalis JH31A at 10 ug/ml after 48 hrs by Neubauer chamber analysis relative to control; assay type: functional
[10] = tested on: Trichomonas vaginalis; assay: Trichomonastatic activity against Trichomonas vaginalis JH31A at 100 ug/ml after 48 hrs by Neubauer chamber analysis relative to control; assay type: functional
[11] = tested on: Leishmania braziliensis; assay: Antiprotozoal activity against metacyclic promastigote stage of Leishmania braziliensis MHOM/PE/95/LQ2 assessed as growth inhibition after 72 hrs by Alamar Blue assay; assay type: functional, organism-based; conditions: for IC50: MHOM/PE/95/LQ2, 72 h
[12] = tested on: Trichomonas vaginalis; assay: Trichomonastatic activity against Trichomonas vaginalis JH31A at 1 ug/ml after 24 hrs by Neubauer chamber analysis relative to control; assay type: functional
[13] = tested on: Trichomonas vaginalis; assay: Trichomonastatic activity against Trichomonas vaginalis JH31A at 10 ug/ml after 24 hrs by Neubauer chamber analysis relative to control; assay type: functional
[14] = tested on: Trichomonas vaginalis; assay: Trichomonastatic activity against Trichomonas vaginalis JH31A at 100 ug/ml after 24 hrs by Neubauer chamber analysis relative to control; assay type: functional
[15] = tested on: Toxoplasma gondii; assay: Antiprotozoal activity against tachyzoite stage of Toxoplasma gondii RH assessed as extrusion of cytoplasmic content by light microscopic analysis; assay type: functional, organism-based
[16] = tested on: J774; assay: Cytotoxicity against mouse J774 cells at 1 ug/mL after 24 hrs by MTT assay; assay type: cell-based; conditions: j774, 24 h
[17] = tested on: J774; assay: Cytotoxicity against mouse J774 cells at 10 ug/mL after 24 hrs by MTT assay; assay type: cell-based; conditions: j774, 24 h
[18] = tested on: J774; assay: Cytotoxicity against mouse J774 cells at 100 ug/mL after 24 hrs by MTT assay; assay type: cell-based; conditions: j774, 24 h
[19] = tested on: Trypanosoma cruzi; assay: Trypanocidal activity against epimastigote stage of Trypanosoma cruzi CL Brener at 1 ug/mL after 72 hrs by beta-galactosidase reporter gene assay relative to control; assay type: functional
[20] = tested on: Trypanosoma cruzi; assay: Trypanocidal activity against epimastigote stage of Trypanosoma cruzi CL Brener at 10 ug/mL after 72 hrs by beta-galactosidase reporter gene assay relative to control; assay type: functional
[21] = tested on: Trypanosoma cruzi; assay: Trypanocidal activity against epimastigote stage of Trypanosoma cruzi CL Brener at 100 ug/mL after 72 hrs by beta-galactosidase reporter gene assay relative to control; assay type: functional
[22] = tested on: Trichomonas vaginalis; assay: Trichomonacidal activity against Trichomonas vaginalis JH31A at 100 ug/ml after 24 hrs by Neubauer chamber analysis relative to control; assay type: functional
[23] = tested on: Trichomonas vaginalis; assay: Trichomonacidal activity against Trichomonas vaginalis JH31A at 100 ug/ml after 48 hrs by Neubauer chamber analysis relative to control; assay type: functional
[24] = tested on: Trichomonas vaginalis; assay: Trichomonacidal activity against Trichomonas vaginalis JH31A at 10 ug/ml after 24 hrs by Neubauer chamber analysis relative to control; assay type: functional
[25] = tested on: Trichomonas vaginalis; assay: Trichomonacidal activity against Trichomonas vaginalis JH31A at 0.5 ug/ml after 48 hrs by Neubauer chamber analysis relative to control; assay type: functional
[26] = tested on: Trichomonas vaginalis; assay: Trichomonacidal activity against Trichomonas vaginalis JH31A at 1 ug/ml after 48 hrs by Neubauer chamber analysis relative to control; assay type: functional
[27] = tested on: Trichomonas vaginalis; assay: Trichomonacidal activity against Trichomonas vaginalis JH31A at 2 ug/ml after 48 hrs by Neubauer chamber analysis relative to control; assay type: functional
[28] = tested on: Trichomonas vaginalis; assay: Trichomonacidal activity against Trichomonas vaginalis JH31A at 0.5 ug/ml after 24 hrs by Neubauer chamber analysis relative to control; assay type: functional
[29] = tested on: Trichomonas vaginalis; assay: Trichomonacidal activity against Trichomonas vaginalis JH31A at 1 ug/ml after 24 hrs by Neubauer chamber analysis relative to control; assay type: functional
[30] = tested on: Trichomonas vaginalis; assay: Trichomonacidal activity against Trichomonas vaginalis JH31A at 2 ug/ml after 24 hrs by Neubauer chamber analysis relative to control; assay type: functional

IC50 [1]	IC50 [3]	SMILES	Activity [2]	Activity [4]	Activity [5]	Activity [6]	Activity [7]	Activity [8]	Activity [9]	growth inhibition (GI) [11]	Activity [12]	Activity [13]	Activity [17]	Activity [18]	Activity [19]	Activity [20]	Activity [21]	IC50 [11]	Activity [22]	Activity [23]	other results
> 2000 µg/mL	> 10 µg/mL	Br.CN(C)CCCCCN1CC(=O)Nc2cc([N+](=O)[O-])ccc21	inactive	95%	96%	93%	73%	0%	14.68%	inactive	1.22%	11.43%	–	–	–	–	–	–	–	–	Activity [10]: 28.33%; Activity [14]: 29.39%
> 2000 µg/mL	> 10 µg/mL	Br.CN1C(=O)CN(CCCCCN2CCCC2)c2ccc([N+](=O)[O-])cc21	inactive	89%	84%	58%	38%	4.1%	67.7%	Dose-dependent effect	0%	–	0%	49.25%	0%	2.51%	6.36%	5.3 µg/mL	100%	100%	Activity [16]: 0%; Activity [24]: 89.25%
> 2000 µg/mL	> 10 µg/mL	Br.CN1C(=O)CN(CCCCCN2CCCCC2)c2ccc([N+](=O)[O-])cc21	inactive	96%	90%	40%	36%	0%	86.52%	Dose-dependent effect	0%	–	11.57%	61.38%	7.93%	60.68%	79.12%	9.57 µg/mL	100%	100%	Activity [24]: 92.63%
1950 µg/mL	> 10 µg/mL	Br.CN1C(=O)CN(CCCCCN2CCCCCC2)c2ccc([N+](=O)[O-])cc21	inactive	81%	77%	71%	0%	2.87%	70.41%	Dose-dependent effect	10.98%	–	20.24%	75.75%	0%	15.38%	65.46%	5.3 µg/mL	100%	100%	Activity [15]: Active; Activity [24]: 91.61%
> 2000 µg/mL	> 10 µg/mL	Br.CN(C)CCCCCN1CC(=O)N(C)c2cc([N+](=O)[O-])ccc21	inactive	81%	90%	93%	81%	0%	11.26%	Dose-dependent effect	8.98%	45.71%	–	–	–	–	–	8.15 µg/mL	100%	100%	–

The next lines start with the compound.

SMILES	IC50 [1]	IC50 [3]	Activity [2]	Activity [4]	Activity [5]	Activity [6]	Activity [7]	Activity [8]	Activity [9]	growth inhibition (GI) [11]	Activity [12]	Activity [13]	Activity [17]	Activity [18]	Activity [19]	Activity [20]	Activity [21]	IC50 [11]	Activity [22]	Activity [23]	other results
CCN(CC)CCCC(C)Nc1ccnc2cc(Cl)ccc12 (stereo unspecified) [CHLOROQUINE]	40 µg/mL (≈ 125 µM)	–	–	–	–	–	–	–	–	–	–	–	–	–	–	–	–	–	–	–	–
Br.O=C1CN(CCCCCN2CCCCCC2)c2ccc([N+](=O)[O-])cc2N1	> 2000 µg/mL	5.72 µg/mL	inactive	88%	82%	0%	0%	0%	0%	Dose-dependent effect	2.35%	12.94%	5.78%	59.14%	8.35%	23.84%	97.73%	39.3 µg/mL	100%	100%	Activity [15]: Active; Activity [16]: 0%
Br.O=C1CN(CCCCCN2CCCC2)c2ccc([N+](=O)[O-])cc2N1	> 2000 µg/mL	> 10 µg/mL	inactive	91%	85%	0%	0%	0%	1.64%	inactive	3.53%	21.02%	0%	0%	4.38%	5.35%	83.54%	–	–	–	Activity [15]: Active; Activity [16]: 0%; Activity [10]: 34.26%; Activity [14]: 75.61%
Br.CN1C(=O)CN(CCCCCN2CCc3ccccc3C2)c2ccc([N+](=O)[O-])cc21	950 µg/mL	6.47 µg/mL	inactive	–	–	–	–	4.1%	23.28%	inactive	4.71%	70.98%	24.44%	99.44%	11.77%	15.62%	19.78%	–	100%	100%	–
Br.O=C1CN(CCCCCN2CCc3ccccc3C2)c2ccc([N+](=O)[O-])cc2N1	1530 µg/mL	> 10 µg/mL	inactive	–	–	–	–	0%	44.06%	Dose-dependent effect	3.53%	83.76%	13.25%	100%	12.49%	56.77%	87.83%	31.3 µg/mL	100%	100%	Activity [16]: 9.89%
Br.O=C1CN(CCCCCN2CCCCC2)c2ccc([N+](=O)[O-])cc2N1	> 2000 µg/mL	> 10 µg/mL	inactive	92%	68%	0%	0%	0%	5.74%	Dose-dependent effect	0%	20.94%	0%	3.36%	1.78%	17.68%	82.4%	64.6 µg/mL	99.37%	100%	Activity [15]: Active; Activity [16]: 0%
Cc1ncc([N+](=O)[O-])n1CCO [METRONIDAZOLE]	–	–	–	–	–	–	–	–	–	–	–	–	–	–	–	–	–	–	–	–	Activity [25]: 99.5%; Activity [26]: 100%; Activity [27]: 100%; Activity [28]: 98%; Activity [29]: 99.1%; Activity [30]: 100%
CC1CS(=O)(=O)CCN1/N=C/c1ccc([N+](=O)[O-])o1 (stereo unspecified) [NIFURTIMOX]	–	–	–	–	–	–	–	–	–	–	–	–	0.6%	25.9%	75.5%	90%	98.73%	–	–	–	Activity [16]: 0%

From ChEMBL document CHEMBL3112492, “Antiprotozoan lead discovery by aligning dry and wet screening: prediction, synthesis, and biological assay of novel quinoxalinones” (Bioorg Med Chem, 2014)
